Experimental data published in US20230286973A1, “PROTEIN SECRETION INHIBITORS” (KEZAR LIFE SCIENCES, priority 2020, published 2023).

Experiments:
[1] = system: PD1-ss+10aa/Gaussia Luciferase; assay: Dox-Induced PD1-ss-Gluc Assay; type: cell-based; conditions: 24 hr Dox induction; 293FRT/TO cells; read-out: 24 hr Dox Inducible PD1ssGluc 293FRT/TO: Mean IC50
Procedure, shortened: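 Stable Flp-In 293 T-REx cells carried a doxycycline-inducible construct of Gaussia luciferase fused to the PD1 signal sequence plus 10 amino acids. Cells were plated the day before, then treated with compound dilutions in DMSO/media containing doxycycline at 37 °C, 5% CO2.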

[2] = system: TNFα-FL/Gaussia Luciferase; assay: Dox Induced TNFα-FL-Gluc Assay; type: cell-based; conditions: for IC50: 24 hr Dox induction, 293FRT/TO cells, read-out: 24 hr Dox Inducible TNFaFLGluc 293FRT/TO: Mean IC50; for 24 hr Dox Inducible TNFaFLGluc 293FRT/TO: TNF/PD1: ratio of TNFaFLGluc IC50 to PD1ssGluc IC50
Procedure, shortened: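 Cell line: stable Flp-In 293 T-REx, TNFα-FL(1-233)-Gaussia luciferase fusion, T-REx-inducible. Plated day -1; compounds in DMSO/media + doxycycline, 37 °C, 5% CO2. Undefined stereocentres = mixture tested.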

[3] = system: HER3-ss+4aa/Gaussia Luciferase; assay: Dox-Induced Her3-ss-Gluc Assay; type: cell-based; conditions: 24 hr Dox induction; 293FRT/TO cells; read-out: 24 hr Dox Inducible Her3(ss + 4)Gluc 293FRT/TO: Mean IC50
Procedure, shortened: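 Flp-In 293 T-REx cells, stable HER3-ss+4aa/Gaussia luciferase insert, hygromycin/blasticidin selected; plated day before; compound in DMSO/media + doxycycline; 37° C., 5% CO2.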

[4] = system: IL-2-FL/Gaussia Luciferase; assay: Dox Induced IL2-FL-Gluc Assay; type: cell-based; conditions: for IC50: 24 hr Dox induction, 293FRT/TO cells, read-out: 24 hr Dox Inducible IL2FLGluc 293FRT/TO: Mean IC50; for 24 hr Dox Inducible IL2FLGluc 293FRT/TO: IL2/PD1: ratio of IL2FLGluc IC50 to PD1ssGluc IC50
Procedure, shortened: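 Stable Flp-In 293 T-REx line, Tet-regulated IL-2 (aa 1-153)–Gaussia luciferase fusion; hygromycin/blasticidin selected. Plated day -1; compound + doxycycline added next day; 37° C, 5% CO2.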

[5] = system: multiple myeloma cell line NCI-H929; assay: H929 Cell Viability Assay; type: cell-based, human; conditions: Homo sapiens, NCI-H929, 48 h, NCI-H929 cells, Celltiter-Glo
Procedure, shortened: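 Cells in RPMI 1640/10% FBS; compound dilutions in DMSO/media; 48 h, 37° C, 5% CO2; CellTiter-Glo luciferase readout for viability.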

[6] = system: multiple myeloma cell line U266B1; assay: U266 Cell Viability Assay; type: cell-based, human; conditions: Homo sapiens, U-266, 48 h, U266B1 cells, Celltiter-Glo
Procedure, shortened: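 Luminescent ATP read-out (CellTiter-Glo) after 48 h compound exposure at 37° C., 5% CO2; cells maintained in RPMI 1640/10% FBS/2 mM glutamine/pen-strep, compounds diluted in DMSO/media.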

[7] = Liver Microsome Stability Assay (rat); conditions: rat liver microsomes, with NADPH, 1.0 uM compound
Protocol: (§1) Stability of a compound was assessed in the presence of liver microsomes from various sources—mouse, rat, monkey and human liver microsomes. 1.0 uM compound, 0.4% DMSO in 0.1 M Potassium Phosphate with 1.0 mg/mL liver microsomes, were incubated at 37° C. with or without 1 mM NADPH. The samples were quenched at 0, and 30 minutes.

[8] = Liver Microsome Stability Assay (mouse); conditions: mouse liver microsomes, with NADPH, 1.0 uM compound
Protocol: as §1

[9] = Liver Microsome Stability Assay (human); conditions: human liver microsomes, with NADPH, 1.0 uM compound
Protocol: as §1

[10] = Liver Microsome Stability Assay (monkey); conditions: monkey liver microsomes, with NADPH, 1.0 uM compound
Protocol: as §1

Structure (SMILES)	IC50 [1] [nM]	IC50 [2] [nM]	IC50 [3] [nM]	IC50 [4] [nM]	EC50 [5] [nM]	EC50 [6] [nM]	Liver Microsome Stability (Multiple Species): Rat - % Remaining after 30 min w/NADPH [7] [%]	Liver Microsome Stability (Multiple Species): Mouse - % Remaining after 30 min w/NADPH [8] [%]	Liver Microsome Stability (Multiple Species): Human - % Remaining after 30 min w/NADPH [9] [%]	Liver Microsome Stability (Multiple Species): Monkey - % Remaining after 30 min w/NADPH [10] [%]	24 hr Dox Inducible TNFaFLGluc 293FRT/TO: TNF/PD1 [2]	24 hr Dox Inducible IL2FLGluc 293FRT/TO: IL2/PD1 [4]
CC(=O)Nc1ccc(N2CCC[C@@H]2c2csc(NC(=O)c3cccn3Cc3cc(F)nc(F)c3)n2)cc1 [Compound A122, (R)-N-(4-(1-(4-acetamidophenyl)pyrrolidin-2-yl)thiazol-2-yl)-1-((2,6-difluoropyridin-4-yl)methyl)-1H-pyrrole-2-carboxamide]	7.88	191	17.4	16	354	8020	18.8	17.1	35.8	27.3	24.2	2
NC(=O)Nc1ccc(N2CCC[C@@H]2c2csc(NC(=O)c3cccn3Cc3ccnc(F)c3)n2)cc1 [Compound A123, (R)-1-((2-fluoropyridin-4-yl)methyl)-N-(4-(1-(4-ureidophenyl)pyrrolidin-2-yl)thiazol-2-yl)-1H-pyrrole-2-carboxamide]	8.21	143	18.1	24.3	289	> 25000	44.7	23.3	49.3	31.6	17.4	3
CN(C)C(=O)Nc1ccc(N2CCC[C@@H]2c2csc(NC(=O)c3cccn3Cc3ccnc(F)c3)n2)cc1 [Compound A124, (R)-N-(4-(1-(4-(3,3-dimethylureido)phenyl)pyrrolidin-2-yl)thiazol-2-yl)-1-((2-fluoropyridin-4-yl)methyl)-1H-pyrrole-2-carboxamide]	4.87	75.8	9.15	10.4	166	> 25000	37.6	31.2	53.1	27.8	15.6	2.1
CNC(=O)N1CC(Oc2ccc(N3CCC[C@@H]3c3csc(NC(=O)c4cccn4Cc4ccnc(F)c4)n3)cc2)C1 [Compound A125, (R)-1-((2-fluoropyridin-4-yl)methyl)-N-(4-(1-(4-((1-(methylcarbamoyl)azetidin-3-yl)oxy)phenyl)pyrrolidin-2-yl)thiazol-2-yl)-1H-pyrrole-2-carboxamide]	22.5	322	28.6	65	1210	> 25000	24.9	45.1	26.2	10.1	14.3	2.9
CC(=O)N1CCC(Oc2ccc(N3CCC[C@@H]3c3csc(NC(=O)c4cccn4Cc4ccnc(F)c4)n3)cc2C#N)CC1 [Compound A126, (R)-N-(4-(1-(4-((1-acetylpiperidin-4-yl)oxy)-3-cyanophenyl)pyrrolidin-2-yl)thiazol-2-yl)-1-((2-fluoropyridin-4-yl)methyl)-1H-pyrrole-2-carboxamide]	59.5	414	5.03	72.5	1130	> 25000	0.78	17.7	1.21	0.92	6.97	1.2
COCCOc1ccc(N2CCC[C@@H]2c2csc(NC(=O)c3cccn3Cc3ccnc(F)c3)n2)cc1 [Compound A127, (R)-1-((2-fluoropyridin-4-yl)methyl)-N-(4-(1-(4-(2-methoxyethoxy)phenyl)pyrrolidin-2-yl)thiazol-2-yl)-1H-pyrrole-2-carboxamide]	5.65	107	10.8	10.1	278	> 25000	0.26	3.95	30.6	24.4	19	1.8

More lines, main results first:

IC50 [1] [nM]	IC50 [2] [nM]	IC50 [3] [nM]	IC50 [4] [nM]	EC50 [5] [nM]	EC50 [6] [nM]	Liver Microsome Stability (Multiple Species): Rat - % Remaining after 30 min w/NADPH [7] [%]	Liver Microsome Stability (Multiple Species): Mouse - % Remaining after 30 min w/NADPH [8] [%]	Liver Microsome Stability (Multiple Species): Human - % Remaining after 30 min w/NADPH [9] [%]	Liver Microsome Stability (Multiple Species): Monkey - % Remaining after 30 min w/NADPH [10] [%]	Structure (SMILES)	24 hr Dox Inducible TNFaFLGluc 293FRT/TO: TNF/PD1 [2]	24 hr Dox Inducible IL2FLGluc 293FRT/TO: IL2/PD1 [4]
37.9	495	68.1	59.6	847	> 25000	31.3	25.5	28	4.62	CS(=O)(=O)N1CCC(Oc2ccc(N3CCC[C@@H]3c3csc(NC(=O)c4cccn4Cc4ccnc(F)c4)n3)cc2)CC1 [Compound A128, (R)-1-((2-fluoropyridin-4-yl)methyl)-N-(4-(1-(4-((1-(methylsulfonyl)piperidin-4-yl)oxy)phenyl)pyrrolidin-2-yl)thiazol-2-yl)-1H-pyrrole-2-carboxamide]	13.1	1.6
9.58	303	15.5	21.2	398	> 25000	0.45	6.21	15.7	8.34	COc1cc(N2CCC[C@@H]2c2csc(NC(=O)c3cccn3Cc3ccnc(F)c3)n2)ccc1OC1CCN(C(C)=O)CC1 [Compound A129, (R)-N-(4-(1-(4-((1-acetylpiperidin-4-yl)oxy)-3-methoxyphenyl)pyrrolidin-2-yl)thiazol-2-yl)-1-((2-fluoropyridin-4-yl)methyl)-1H-pyrrole-2-carboxamide]	31.6	2.2
15.8	683	27.8	65.8	731	> 25000	52.7	53	32.5	25.4	NC(=O)N1CC(Oc2ccc(N3CCC[C@@H]3c3csc(NC(=O)c4cccn4Cc4ccnc(F)c4)n3)cc2)C1 [Compound A130, (R)-N-(4-(1-(4-((1-carbamoylazetidin-3-yl)oxy)phenyl)pyrrolidin-2-yl)thiazol-2-yl)-1-((2-fluoropyridin-4-yl)methyl)-1H-pyrrole-2-carboxamide]	43.1	4.2
